{"source": "patent EP1749819A1", "about": "“(rac)-N-piperidinyl-5-(4-chlorophenyl)-1-(2,4-dichlorophenyl)-4,5-dihydro-1H-pyrazole-3-carboxamide hydrates” (LABORATORIOS DEL DR. ESTEVE, S.A., priority 2005, dated 2007)", "key": {"[1]": {"molecular_target": "T1, transfected human CB1 and CB2 receptors: CB1-Receptor (Homo sapiens, UniProt P21554)", "T1 construct": "purchased Receptor Biology; Inc", "T1 sequence (P21554 whole entry)": "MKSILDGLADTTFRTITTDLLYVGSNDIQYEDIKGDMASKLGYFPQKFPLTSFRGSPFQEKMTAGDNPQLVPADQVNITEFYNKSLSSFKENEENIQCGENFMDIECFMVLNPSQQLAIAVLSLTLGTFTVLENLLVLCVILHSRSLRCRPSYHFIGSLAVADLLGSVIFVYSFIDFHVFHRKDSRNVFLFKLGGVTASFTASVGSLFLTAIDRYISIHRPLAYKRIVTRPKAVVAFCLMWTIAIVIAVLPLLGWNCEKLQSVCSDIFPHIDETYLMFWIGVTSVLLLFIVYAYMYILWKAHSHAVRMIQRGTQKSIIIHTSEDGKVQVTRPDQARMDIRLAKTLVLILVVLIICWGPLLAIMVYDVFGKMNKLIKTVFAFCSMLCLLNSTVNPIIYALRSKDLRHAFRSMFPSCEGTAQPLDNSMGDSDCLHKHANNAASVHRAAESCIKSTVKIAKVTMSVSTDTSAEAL", "experiment": "In-vitro determination of affinity to CB1 receptor (radioligand [^3H]-CP55940)", "type": "binding", "experimental": "(§1) Brockie et al., \"Agonist-inverse agonist characterization at CB1 and CB2 cannabinoid receptors of L-759633, L759656 and AM630\", British Journal of Pharmacology, 126, 665-672, (1999), whereby the transfected human CB1 and CB2 receptors of Receptor Biology. Inc. are used. The radioligand used for both receptors is [^3H]-CP55940.\n(§2) The affinity of the inventive substituted pyrazoline compounds to CB1/CB2 receptors was determined as described above."}, "[2]": {"molecular_target": "T2, transfected human CB1 and CB2 receptors: CB2-Receptor (Homo sapiens, UniProt P34972)", "T2 construct": "purchased Receptor Biology; Inc", "T2 sequence (P34972 whole entry)": "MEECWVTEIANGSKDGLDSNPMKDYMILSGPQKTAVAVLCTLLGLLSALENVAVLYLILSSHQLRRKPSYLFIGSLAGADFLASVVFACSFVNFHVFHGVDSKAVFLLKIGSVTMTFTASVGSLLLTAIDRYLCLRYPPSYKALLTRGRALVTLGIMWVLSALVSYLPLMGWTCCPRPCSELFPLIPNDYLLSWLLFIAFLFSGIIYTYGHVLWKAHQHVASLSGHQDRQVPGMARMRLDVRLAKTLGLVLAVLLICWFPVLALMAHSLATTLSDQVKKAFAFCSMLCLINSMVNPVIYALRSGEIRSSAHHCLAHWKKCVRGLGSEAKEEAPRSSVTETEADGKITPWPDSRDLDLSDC", "experiment": "In-vitro determination of affinity to CB2 receptor (radioligand [^3H]-CP55940)", "type": "binding", "experimental": "as §1, §2"}, "[3]": {"tested_on": "Male NMRI mice", "experiment": "Mouse tetrad model, agonistic effect", "type": "in vivo", "conditions": "5 mg/kg i.v.", "text": "(§3) Substances with affinity for cannabinoid receptors are known to produce a wide range of pharmacological effects. It is also known that intravenous administration of a substance with affinity for cannabinoid receptors in mice produces analgesia , hypothermia, sedation and catalepsy. Individually, none of these effects can be considered as proof that a tested substance has affinity for cannabinoid-receptors, since all of these effects are common for various classes of centrally active aaents. However, substances, which show all of these effects, i.e. substances that are active in this so-called tetrad model are considered to have affinity for the cannabinoid receptors. It has further been shown that cannabinoid receptor antagonists are higly effective in blocking the effects of a cannabinoid agonist in the mouse tetrad model.\n(§4) The tetrad model is described, for example, in the publication of A. C. Howlett et al, International Union of Pharmacology XXVII. Classification of Cannabinoid Receptors, Pharmacol Rev 54, 161-202 , 2002 and David R. Compton et al., \"In-vivo Characterization of a Specific Cannabinoid Receptor Antagonist (SR141716A) :Inhibition of Tetrahydrocannbinol- induced Responses and Apparent Agonist Activity\", J. Pharmacol. Exp. Ther. 277 , 2, 586-594, 1996. The corresponding parts of the description are hereby incorporated by reference. […]\n(§5) Before testing in the behavioral procedures given below, mice are acclimatized to the experimental setting. Pre-Treatment control values are determined for analgesia hot plate latency (in seconds), rectal temperature, sedation and catalepsy.\nIn order to determine the agonistic activty of the substance to be tested, the mice are injected intravenously with the substance to be tested or the vehicle alone. 15 minutes after injection, latency in hot plate analgesia is measured. Rectal temperature, sedation and catalepsy are measured 20 minutes after injection.\n(§6) The hot plate analgesia is determined according to the method described in Woolfe D. et al. \"The evaluation of analgesic action of pethidine hydrochloride (Demerol)\", J. Pharmacol. Exp. Ther. 80, 300-307,1944.\n(§7) The mice are placed on a hot plate (Harvard Analgesimeter) at 55 ± 0.5 °C until they show a painful sensation by licking their paws or jumping and the time for these sensations to occur is recorded. This reading is considered the basal value (B). […]\n(§8) Fifteen minuts after the administration of the substance to be tested, the mice are again placed on the hot plate and the afore described procedure is repeated. This period is called the post-treatment reading (PT).\n(§9) The degree of analgesia is calculated from the formula: %MPEof Analgesia = (PT−B)/(PC−B) × 100 [formula] […]"}, "[4]": {"tested_on": "Male NMRI mice", "experiment": "Mouse tetrad model, antagonistic effect against Win 55212-2", "type": "in vivo", "conditions": "5 mg/kg i.v. prior to Win 55212-2 in a dose of 1,25mg/kg i.v.", "text": "as §3, §4, §5\nIn order to determine the antagonistic activity the identical procedure is used as for the determination of the agonistic effects, but with the difference that the substance to be evaluated for its antagonistic activity is injectected 5 minutes before the intravenous injection of 1.25 mg/kg Win-55,212 a known cannabinoid-receptor agonist.\nas §6, §7, §8, §9"}}, "data": [{"smiles": "O=C(NN1CCCCC1)C1=NN(c2ccc(Cl)cc2Cl)C(c2ccc(Cl)cc2)C1", "note": "(stereo not shown) [Example 1, N-piperidinyl-5-(4-chlorophenyl)-1-(2,4-dichlorophenyl)-4,5-dihydro-1H-pyrazole-3-carboxamide]", "values": [{"measurement": "Ki", "setting": "[1]", "value": "< 25", "unit": "nM"}, {"measurement": "Ki", "setting": "[2]", "value": "> 1000", "unit": "nM"}, {"measurement": "Agonistic effect A: Hot-Plate test", "setting": "[3]; 15 minutes after injection", "value": 0}, {"measurement": "Agonistic effect B: Hypothermia", "setting": "[3]; 20 minutes after injection", "value": 0}, {"measurement": "Agonistic effect C: Catalepsy", "setting": "[3]; 20 minutes after injection", "value": 0}, {"measurement": "Agonistic effect D: Sedation", "setting": "[3]; 20 minutes after injection", "value": 0}, {"measurement": "Antagonistic Effect A: Hot-Plate test", "setting": "[4]", "value": 74}, {"measurement": "Antagonistic Effect B: Hypothermia", "setting": "[4]", "value": 100}, {"measurement": "Antagonistic Effect C: Catalepsy", "setting": "[4]", "value": 100}, {"measurement": "Antagonistic Effect D: Sedation", "setting": "[4]", "value": 100}]}]}
